# Earlier results as cited in patent publication US11241426B2, “Aqueous composition for ophthalmic or nasal administration” (NITTO MEDIC CO., LTD., priority 2017, dated 2022).
# Molecular target: human H1 receptor (Homo sapiens, UniProt P35367)
# Sequence (P35367 whole entry): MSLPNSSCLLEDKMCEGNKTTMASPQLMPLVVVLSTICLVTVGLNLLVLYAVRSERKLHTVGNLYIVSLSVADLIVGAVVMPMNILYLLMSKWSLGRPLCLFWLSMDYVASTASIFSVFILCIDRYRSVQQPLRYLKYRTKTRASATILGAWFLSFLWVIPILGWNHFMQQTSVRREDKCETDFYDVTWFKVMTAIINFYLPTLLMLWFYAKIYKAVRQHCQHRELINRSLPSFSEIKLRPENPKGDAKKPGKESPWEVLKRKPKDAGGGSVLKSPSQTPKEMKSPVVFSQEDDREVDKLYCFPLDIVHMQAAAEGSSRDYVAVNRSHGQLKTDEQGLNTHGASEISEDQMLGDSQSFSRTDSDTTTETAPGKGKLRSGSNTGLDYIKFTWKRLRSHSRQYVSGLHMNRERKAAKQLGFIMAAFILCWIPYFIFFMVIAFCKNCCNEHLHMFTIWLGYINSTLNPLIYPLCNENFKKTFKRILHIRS
structure (smiles),measurement,setting,value
O=C(O)COCCN1CCN([C@H](c2ccccc2)c2ccc(Cl)cc2)CC1 [Levocetirizine],"affinity for the human H1 receptor, fold higher than that of cetirizine",relative to cetirizine,about 2 fold
same,"affinity for the human H1 receptor, fold higher than that of the S-enantiomer, dextrocetirizine",relative to dextrocetirizine,about 30 fold
